Key:
[1] = system: late watergrass; experiment: Test Example 2: herbicidal activity, application during weed generation under submerged conditions (Table 17, symbol A); type: in vivo, late watergrass (Echinochloa oryzicola); settings: AAH 320 g/ha; application during weed generation, submerged conditions
Method in brief: (§1)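 Wagner pot, alluvial soil, 4 cm flood; mixed sowing of all species; greenhouse 25° C.–30° C. Emulsifiable formulation, water-diluted to predetermined dose, applied to paddy water at 1–2 leaf stage. Effect rated at 3 wk using the earlier test's scoring criteria.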

[2] = system: Japanese bulrush; experiment: Test Example 2: herbicidal activity, application during weed generation under submerged conditions (Table 17, symbol B); type: in vivo, Japanese bulrush (Schoenoplectus juncoides); settings: AAH 320 g/ha; application during weed generation, submerged conditions
Method in brief: as §1

[3] = system: oval-leafed pondweed; experiment: Test Example 2: herbicidal activity, application during weed generation under submerged conditions (Table 17, symbol C); type: in vivo, oval-leafed pondweed (Monochoria vaginalis); settings: AAH 320 g/ha; application during weed generation, submerged conditions
Method in brief: as §1

[4] = system: barnyard grass; experiment: Test Example 3: herbicidal effect by foliage application, Wagner pot (Table 18, symbol H); type: in vivo, barnyard grass (Echinochloa crus-galli); settings: amount of applied herbicide 320 g/ha
Method in brief: (§2)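 Plants were sown in alluvial soil held under 0.1–0.5 cm standing water and grown 14 days in a greenhouse at 25–30 °C. An emulsifiable formulation, water-diluted to the set dose, was then sprayed onto the foliage, and effects were scored three weeks later using previously defined criteria.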

[5] = system: Chinese sprangletop; experiment: Test Example 3: herbicidal effect by foliage application, Wagner pot (Table 18, symbol D); type: in vivo, chinese sprangletop (Leptochloa chinensis); settings: amount of applied herbicide 320 g/ha
Method in brief: as §2

[6] = system: rice flat sedge; experiment: Test Example 3: herbicidal effect by foliage application, Wagner pot (Table 18, symbol E); type: in vivo, rice flat sedge (Cyperus iria); settings: amount of applied herbicide 320 g/ha
Method in brief: as §2

[7] = system: southern crabgrass; experiment: Test Example 4: herbicidal effect by soil treatment (Table 19, symbol F); type: in vivo, southern crabgrass (Digitaria ciliaris); settings: amount of applied herbicide 320 g/ha
Method in brief: (§3)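 Three weeks of greenhouse growth at 25° C. to 30° C. followed a uniform surface spray of water-diluted emulsion at a predetermined herbicide amount. Seeds had been sown beforehand under about 1.5 cm of sterilized diluvial soil. Grading followed criteria set out in an earlier test.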

[8] = system: green foxtail; experiment: Test Example 4: herbicidal effect by soil treatment (Table 19, symbol G); type: in vivo, green foxtail (Setaria viridis); settings: amount of applied herbicide 320 g/ha
Method in brief: as §3

[9] = system: barnyard grass; experiment: Test Example 4: herbicidal effect by soil treatment (Table 19, symbol H); type: in vivo, barnyard grass (Echinochloa crus-galli); settings: amount of applied herbicide 320 g/ha
Method in brief: as §3

[10] = system: wild oat; experiment: Test Example 4: herbicidal effect by soil treatment (Table 19, symbol I); type: in vivo, wild oat (Avena fatua); settings: amount of applied herbicide 320 g/ha
Method in brief: as §3

[11] = system: Italian ryegrass; experiment: Test Example 4: herbicidal effect by soil treatment (Table 19, symbol K); type: in vivo, Italian ryegrass (Lolium multiflorum); settings: amount of applied herbicide 320 g/ha
Method in brief: as §3

[12] = system: windgrass; experiment: Test Example 4: herbicidal effect by soil treatment (Table 19, symbol L); type: in vivo, windgrass (Apera spica-venti); settings: amount of applied herbicide 320 g/ha
Method in brief: as §3

[13] = system: velvetleaf; experiment: Test Example 4: herbicidal effect by soil treatment (Table 19, symbol M); type: in vivo, velvetleaf (Abutilon theophrasti); settings: amount of applied herbicide 320 g/ha
Method in brief: as §3

[14] = system: redroot pigweed; experiment: Test Example 4: herbicidal effect by soil treatment (Table 19, symbol N); type: in vivo, redroot pigweed (Amaranthus retroflexus); settings: amount of applied herbicide 320 g/ha
Method in brief: as §3

[15] = system: lambsquarters; experiment: Test Example 4: herbicidal effect by soil treatment (Table 19, symbol O); type: in vivo, lambsquarters (Chenopodium album); settings: amount of applied herbicide 320 g/ha
Method in brief: as §3

[16] = system: chickweed; experiment: Test Example 4: herbicidal effect by soil treatment (Table 19, symbol P); type: in vivo, common chickweed (Stellaria media); settings: amount of applied herbicide 320 g/ha
Method in brief: as §3

[17] = system: false cleavers; experiment: Test Example 4: herbicidal effect by soil treatment (Table 19, symbol Q); type: in vivo, false cleavers (Galium spurium); settings: amount of applied herbicide 320 g/ha
Method in brief: as §3

[18] = system: persian speedwell; experiment: Test Example 4: herbicidal effect by soil treatment (Table 19, symbol R); type: in vivo, Persian speedwell (Veronica persica); settings: amount of applied herbicide 320 g/ha
Method in brief: as §3

[19] = system: southern crabgrass; experiment: Test Example 5: herbicidal effect by foliage application, plastic box (Table 20, symbol F); type: in vivo, southern crabgrass (Digitaria ciliaris); settings: foliage application, 320 g/ha, evaluated three weeks after application
Method in brief: (§4)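 Plants sown in sterilized diluvial soil and grown 14 days in a greenhouse at 25° C to 30° C, then sprayed on the foliage with the compound's emulsion diluted in water to a predetermined herbicide amount. Injury to weeds and crops scored three weeks after application on a visual rating scale.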

[20] = system: green foxtail; experiment: Test Example 5: herbicidal effect by foliage application, plastic box (Table 20, symbol G); type: in vivo, green foxtail (Setaria viridis); settings: foliage application, 320 g/ha, evaluated three weeks after application
Method in brief: as §4

[21] = system: barnyard grass; experiment: Test Example 5: herbicidal effect by foliage application, plastic box (Table 20, symbol H); type: in vivo, barnyard grass (Echinochloa crus-galli); settings: foliage application, 320 g/ha, evaluated three weeks after application
Method in brief: as §4

[22] = system: wild oat; experiment: Test Example 5: herbicidal effect by foliage application, plastic box (Table 20, symbol I); type: in vivo, wild oat (Avena fatua); settings: foliage application, 320 g/ha, evaluated three weeks after application
Method in brief: as §4

[23] = system: blackgrass; experiment: Test Example 5: herbicidal effect by foliage application, plastic box (Table 20, symbol J); type: in vivo, blackgrass (Alopecurus myosuroides); settings: foliage application, 320 g/ha, evaluated three weeks after application
Method in brief: as §4

[24] = system: Italian ryegrass; experiment: Test Example 5: herbicidal effect by foliage application, plastic box (Table 20, symbol K); type: in vivo, Italian ryegrass (Lolium multiflorum); settings: foliage application, 320 g/ha, evaluated three weeks after application
Method in brief: as §4

[25] = system: windgrass; experiment: Test Example 5: herbicidal effect by foliage application, plastic box (Table 20, symbol L); type: in vivo, windgrass (Apera spica-venti); settings: foliage application, 320 g/ha, evaluated three weeks after application
Method in brief: as §4

[26] = system: velvetleaf; experiment: Test Example 5: herbicidal effect by foliage application, plastic box (Table 20, symbol M); type: in vivo, velvetleaf (Abutilon theophrasti); settings: foliage application, 320 g/ha, evaluated three weeks after application
Method in brief: as §4

[27] = system: redroot pigweed; experiment: Test Example 5: herbicidal effect by foliage application, plastic box (Table 20, symbol N); type: in vivo, redroot pigweed (Amaranthus retroflexus); settings: foliage application, 320 g/ha, evaluated three weeks after application
Method in brief: as §4

[28] = system: lambsquarters; experiment: Test Example 5: herbicidal effect by foliage application, plastic box (Table 20, symbol O); type: in vivo, lambsquarters (Chenopodium album); settings: foliage application, 320 g/ha, evaluated three weeks after application
Method in brief: as §4

[29] = system: chickweed; experiment: Test Example 5: herbicidal effect by foliage application, plastic box (Table 20, symbol P); type: in vivo, common chickweed (Stellaria media); settings: foliage application, 320 g/ha, evaluated three weeks after application
Method in brief: as §4

[30] = system: false cleavers; experiment: Test Example 5: herbicidal effect by foliage application, plastic box (Table 20, symbol Q); type: in vivo, false cleavers (Galium spurium); settings: foliage application, 320 g/ha, evaluated three weeks after application
Method in brief: as §4

[31] = system: persian speedwell; experiment: Test Example 5: herbicidal effect by foliage application, plastic box (Table 20, symbol R); type: in vivo, Persian speedwell (Veronica persica); settings: foliage application, 320 g/ha, evaluated three weeks after application
Method in brief: as §4

SMILES: CCCC(=O)Oc1c(C)nn(C)c(=O)c1-c1c(-c2ccc3c(c2)OCCO3)sc2ccc(Cl)cc12 [2-128]
- herbicidal effect rating, A: late watergrass [1]: 0 (Herbicidal rate of 5% or less (almost no effect))
- herbicidal effect rating, B: Japanese bulrush [2]: 0 (Herbicidal rate of 5% or less (almost no effect))
- herbicidal effect rating, C: oval-leafed pondweed [3]: 3 (Herbicidal rate of 40% or more and less than 70%)
- herbicidal effect on H: barnyard grass [4]: 3 (Herbicidal rate of 40% or more and less than 70%)
- herbicidal effect on D: Chinese sprangletop [5]: 0 (Herbicidal rate of 5% or less (almost no effect))
- herbicidal effect on E: rice flat sedge [6]: 0 (Herbicidal rate of 5% or less (almost no effect))
- F: southern crabgrass, herbicidal effect rating [7]: 0 (Herbicidal rate of 5% or less (almost no effect))
- G: green foxtail, herbicidal effect rating [8]: 0 (Herbicidal rate of 5% or less (almost no effect))
- H: barnyard grass, herbicidal effect rating [9]: 0 (Herbicidal rate of 5% or less (almost no effect))
- I: wild oat, herbicidal effect rating [10]: 0 (Herbicidal rate of 5% or less (almost no effect))
- K: Italian ryegrass, herbicidal effect rating [11]: 0 (Herbicidal rate of 5% or less (almost no effect))
- L: windgrass, herbicidal effect rating [12]: 0 (Herbicidal rate of 5% or less (almost no effect))
- M: velvetleaf, herbicidal effect rating [13]: 0 (Herbicidal rate of 5% or less (almost no effect))
- N: redroot pigweed, herbicidal effect rating [14]: 0 (Herbicidal rate of 5% or less (almost no effect))
- O: lambsquarters, herbicidal effect rating [15]: 0 (Herbicidal rate of 5% or less (almost no effect))
- P: chickweed, herbicidal effect rating [16]: 1 (Herbicidal rate of 5% or more and less than 20%)
- Q: false cleavers, herbicidal effect rating [17]: 0 (Herbicidal rate of 5% or less (almost no effect))
- R: persian speedwell, herbicidal effect rating [18]: 5 (Herbicidal rate of 90% or more (almost completely withered))
- herbicidal effect on F: southern crabgrass [19]: 0 (Herbicidal rate of 5% or less (almost no effect))
- herbicidal effect on G: green foxtail [20]: 0 (Herbicidal rate of 5% or less (almost no effect))
- herbicidal effect on H: barnyard grass [21]: 0 (Herbicidal rate of 5% or less (almost no effect))
- herbicidal effect on I: wild oat [22]: 0 (Herbicidal rate of 5% or less (almost no effect))
- herbicidal effect on J: blackgrass [23]: 0 (Herbicidal rate of 5% or less (almost no effect))
- herbicidal effect on K: Italian ryegrass [24]: 0 (Herbicidal rate of 5% or less (almost no effect))
- herbicidal effect on L: windgrass [25]: 0 (Herbicidal rate of 5% or less (almost no effect))
- herbicidal effect on M: velvetleaf [26]: 2 (Herbicidal rate of 20% or more and less than 40%)
- herbicidal effect on N: redroot pigweed [27]: 3 (Herbicidal rate of 40% or more and less than 70%)
- herbicidal effect on O: lambsquarters [28]: 1 (Herbicidal rate of 5% or more and less than 20%)
- herbicidal effect on P: chickweed [29]: 5 (Herbicidal rate of 90% or more (almost completely withered))
- herbicidal effect on Q: false cleavers [30]: 0 (Herbicidal rate of 5% or less (almost no effect))
- herbicidal effect on R: persian speedwell [31]: 5 (Herbicidal rate of 90% or more (almost completely withered))

From patent US20230085307A1, “PYRIDAZINONE COMPOUND AND HERBICIDE” (NISSAN CHEMICAL CORPORATION, priority 2019, published 2023)
